Assay results as given in US7265152B2 (ViroPharma Incorporated, priority 2002, dated 2007).
pEC50, pIC50: −log10 of the molar value. Where two headings read alike, the source gives them in different places.

How the values were obtained:
[1] = system: HCV replicon (BB7 sequence) in Huh-7-Clone A cells; test: HCV replicon assay: ELISA of NS5A protein in replicon-containing cells (Inhibition of Viral RNA Replication); format: cell-based; details: read-out: Replicon
Method in brief: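 Huh-7-Clone A cells carrying subgenomic BB7 HCV replicon (G418-selectable) incubated 72 h with compound. NS5A protein quantified by cell ELISA: glutaraldehyde fixation, anti-NS5A monoclonal plus HRP secondary, TMB read at OD 650 nm. EC50 derived from 8-point serial dilution dose curve.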

HCV NS5B = target: T1, HCV NS5B (Hepatitis C virus genotype 1b, UniProt Q9WMX2); test: Inhibition of viral RNA-dependent RNA polymerase (RdRp), in vitro biochemical assay; set-up: species or system HCV genotype 1b virus (BB7); details: read-out: HCV pol-BB7 IC50
T1 construct: fusion protein, of which the carboxyl terminal 21 amino acids were removed to enhance its solubility; His tag (GSHHHHHH); made in house; host or cells: E. coli
Method in brief: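 Purified recombinant NS5B from a genotype 1b consensus (BB7), His-tagged, E. coli-expressed, with the C-terminal 21 residues deleted. Inhibition of RdRp activity in vitro was measured, and IC50 is the concentration giving 50% inhibition.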

[2] = Hepatitis C virus, HCV replicon, range of EC50
[3] = HCV NS5B RdRp, BB7, reported as range class
[4] = Hepatitis C virus, ranges of EC50 in HCV replicon assay
[5] = Hepatitis C virus, Huh-7-Clone A, NS5A ELISA, 72-hour incubation, ranges of EC50
[6] = purified His-tagged NS5B (BB7), carboxyl terminal 21 amino acids removed
[7] = Hepatitis C virus, HCV replicon assay, ranges of EC50
[8] = HCV NS5B RdRp, BB7, class symbols A-D
[9] = Hepatitis C virus, HCV replicon assay, ranges of 50% effective concentration (EC50)
[10] = HCV NS5B polymerase, BB7 (genotype 1b), values given as range classes A-D

CCNC(=O)c1c(-c2ccc(F)cc2)oc2cc(NS(C)(=O)=O)c(OC(C)C)cc12 [Example 200, 2-(4-Fluoro-phenyl)-5-isopropoxy-6-methanesulfonylamino-benzofuran-3-carboxylic acid ethylamide]
pEC50 [1, 2]: > 6.00
pIC50 (HCV NS5B; [3]): ≥ 6.30

CNC(=O)c1c(-c2ccc(F)cc2)oc2cc(OC)c(OC)cc12 [Example 102, 2-(4-Fluoro-phenyl)-5,6-dimethoxy-benzofuran-3-carboxylic acid methylamide]
pEC50 [1, 4]: > 6.00
pIC50 (HCV NS5B; HCV NS5B RdRp, BB7 genotype 1b): ≥ 6.30

CNC(=O)c1c(-c2cccc(C(F)(F)F)c2)oc2ccc(OC)cc12 [Example 55, 5-Methoxy-2-(3-trifluoromethyl-phenyl)-benzofuran-3-carboxylic acid methylamide]
pEC50 [1, 5]: > 4.52
pIC50 (HCV NS5B; [6]): 5.30 to 6.30

CNC(=O)c1c(-c2ccc(F)cc2)oc2cc(S(=O)(=O)NC)c(OC(C)C)cc12 [Example 143, 2-(4-Fluoro-phenyl)-5-isopropoxy-6-methylsulfamoyl-benzofuran-3-carboxylic acid methylamide]
pEC50 [1, 4]: < 4.52
pIC50 (HCV NS5B; HCV NS5B RdRp, BB7 genotype 1b): ≥ 6.30

CCc1ccc(-c2oc3ccc(F)cc3c2C(=O)NC)cc1 [Example 83, 2-(4-Ethyl-phenyl)-5-fluoro-benzofuran-3-carboxylic acid methylamide]
pEC50 [1, 5]: > 5.00
pIC50 (HCV NS5B; [6]): ≥ 6.30

CNC(=O)c1c(-c2ccc(F)cc2)oc2cc(-c3ccc(S(C)(=O)=O)cc3)c(OC(C)C)cc12 [Example 179, 2-(4-Fluoro-phenyl)-5-isopropoxy-6-(4-methanesulfonyl-phenyl)-benzofuran-3-carboxylic acid methylamide]
pEC50 [1, 2]: > 5.00
pIC50 (HCV NS5B; [3]): ≥ 6.30

CNC(=O)c1c(-c2ccc(F)cc2)oc2cc(N(C)S(C)(=O)=O)c(OCc3csc(C)n3)cc12 [Example 320, 2-(4-Fluoro-phenyl)-6-(methanesulfonyl-methyl-amino)-5-(2-methyl-thiazol-4-ylmethoxy)-benzofuran-3-carboxylic acid methylamide]
pEC50 [1, 7]: > 6.00
pIC50 (HCV NS5B; [8]): ≥ 6.30

CNC(=O)c1c(-c2ccc(F)cc2)oc2cc(C#N)c(OC)cc12 [Example 266, 6-Cyano-2-(4-fluoro-phenyl)-5-methoxy-benzofuran-3-carboxylic acid methylamide]
pEC50 [1, 7]: > 6.00
pIC50 (HCV NS5B; [8]): ≥ 6.30

CNC(=O)c1c(-c2ccc(F)cc2)oc2cc(N3CCC(F)CC3)c(OC(C)C)cc12 [Example 171, 2-(4-Fluoro-phenyl)-6-(4-fluoro-piperidin-1-yl)-5-isopropoxy-benzofuran-3-carboxylic acid methylamide]
pEC50 [1, 4]: > 6.00
pIC50 (HCV NS5B; HCV NS5B RdRp, BB7 genotype 1b): 5.30 to 6.30

CNC(=O)c1c(-c2ccc(F)cc2)oc2cc(-c3ncnn3C)c(OC)cc12 [Example 323, 2-(4-Fluoro-phenyl)-5-methoxy-6-(2-methyl-2H-[1,2,4]triazol-3-yl)-benzofuran-3-carboxylic acid methylamide]
pEC50 [1, 7]: > 6.00
pIC50 (HCV NS5B; [8]): ≥ 6.30

CCOc1cc2c(C(=O)NC)c(-c3ccc(F)cc3)oc2cc1N1CCOCC1 [Example 166, 5-Ethoxy-2-(4-fluoro-phenyl)-6-morpholin-4-yl-benzofuran-3-carboxylic acid methylamide]
pEC50 [1, 4]: > 5.00
pIC50 (HCV NS5B; HCV NS5B RdRp, BB7 genotype 1b): 5.30 to 6.30

CNC(=O)c1c(-c2ccc(F)cc2)oc2cc(N(Cc3ccccc3)S(C)(=O)=O)c(OC(C)C)cc12 [Example 361, 6-(Benzyl-methanesulfonyl-amino)-2-(4-fluoro-phenyl)-5-isopropoxy-benzofuran-3-carboxylic acid methylamide]
pEC50 [1, 7]: > 6.00
pIC50 (HCV NS5B; HCV NS5B RdRp, BB7, activity class): ≥ 6.30

CNC(=O)c1c(-c2ccc(F)cc2)oc2ccc(C)cc12 [Example 10, 5-Methyl-2-(4-fluoro-phenyl)benzofuran-3-carboxylic acid methylamide]
pEC50 [1, 5]: > 5.00
pIC50 (HCV NS5B; [6]): 5.30 to 6.30

CCOc1ccc2oc(-c3ccc(Cl)s3)c(C(=O)NC)c2c1 [Example 87, 2-(5-Chloro-thiophen-2-yl)-5-ethoxy-benzofuran-3-carboxylic acid methylamide]
pEC50 [1, 5]: > 5.00
pIC50 (HCV NS5B; [6]): ≥ 6.30

CNC(=O)c1c(-c2ccc(F)cc2)oc2cc(N(C)S(C)(=O)=O)c(OCC#N)cc12 [Example 395, 5-Cyanomethoxy-2-(4-fluoro-phenyl)-6-(methanesulfonyl-methyl-amino)-benzofuran-3-carboxylic acid methylamide]
pEC50 [1, 9]: > 6.00
pIC50 (HCV NS5B; [10]): ≥ 6.30

CNC(=O)c1c(-c2ccc(F)cc2)oc2cc(NC(C)=O)c(OC)cc12 [Example 18, 6-Acetylamino-2-(4-fluoro-phenyl)-5-methoxy-benzofuran-3-carboxylic acid methylamide]
pEC50 [1, 5]: > 6.00
pIC50 (HCV NS5B; [6]): ≥ 6.30

CNC(=O)c1c(-c2ccc(F)cc2)oc2cc(-c3ccnn3C)c(OC(C)C)cc12 [Example 231, 2-(4-Fluoro-phenyl)-5-isopropoxy-6-(2-methyl-2H-pyrazol-3-yl)-benzofuran-3-carboxylic acid methylamide]
pEC50 [1, 2]: > 6.00
pIC50 (HCV NS5B; [3]): ≥ 6.30

CNC(=O)c1c(-c2ccc(F)cc2)oc2cc(-c3cc(COC)on3)c(OC(C)C)cc12 [Example 273, 2-(4-Fluoro-phenyl)-5-isopropoxy-6-(5-methoxymethyl-isoxazol-3-yl)-benzofuran-3-carboxylic acid methylamide]
pEC50 [1, 7]: > 6.00
pIC50 (HCV NS5B; [8]): ≥ 6.30

CNC(=O)c1c(-c2ccc(F)cc2)oc2cc(N(CCO)S(C)(=O)=O)c(OC)cc12 [Example 42, 2-(4-Fluoro-phenyl)-6-[(2-hydroxy-ethyl)-methanesulfonyl-amino]-5-methoxy-benzofuran-3-carboxylic acid methylamide]
pEC50 [1, 5]: > 6.00
pIC50 (HCV NS5B; [6]): ≥ 6.30

CNC(=O)c1c(-c2ccc(F)cc2)oc2cc(O)c(OC)cc12 [Example 208, 2-(4-Fluoro-phenyl)-6-hydroxy-5-methoxy-benzofuran-3-carboxylic acid methylamide]
pEC50 [1, 2]: > 4.52
pIC50 (HCV NS5B; [3]): 5.30 to 6.30

CNC(=O)c1c(-c2ccc(Br)cc2)oc2ccc(OC)cc12 [Example 70, 2-(4-Bromo-phenyl)-5-methoxy-benzofuran-3-carboxylic acid methylamide]
pEC50 [1, 5]: > 5.00
pIC50 (HCV NS5B; [6]): ≥ 6.30

CNC(=O)c1c(-c2ccccc2F)oc2ccc(OC)cc12 [Example 58, 2-(2-Fluoro-phenyl)-5-methoxy-benzofuran-3-carboxylic acid methylamide]
pEC50 [1, 5]: > 5.00
pIC50 (HCV NS5B; [6]): 5.30 to 6.30

CNC(=O)c1c(-c2ccc(F)cc2)oc2cc(Cl)c(OC)cc12 [Example 126, 6-Chloro-2-(4-fluoro-phenyl)-5-methoxy-benzofuran-3-carboxylic acid methylamide]
pEC50 [1, 4]: > 6.00
pIC50 (HCV NS5B; HCV NS5B RdRp, BB7 genotype 1b): ≥ 6.30

CNC(=O)c1c(-c2ccc(F)cc2)oc2cc(N3CCN(C(N)=O)CC3)c(OC(C)C)cc12 [Example 185, [2-(4-Fluoro-phenyl)-5-isopropoxy-3-methylcarbamoyl-benzofuran-6-yl]-piperazine-1-carboxylic acid amide]
pEC50 ([1]; HCV replicon, range of EC50): > 5.00
pIC50 (HCV NS5B; [3]): 4.52 to 5.30

CNC(=O)c1c(-c2ccc(F)cc2)oc2cc(N(CCN3CCOCC3)S(C)(=O)=O)c(OC(C)C)cc12 [Example 191, 2-(4-Fluoro-phenyl)-5-isopropoxy-6-[methanesulfonyl-(2-morpholin-4-yl-ethyl)-amino]-benzofuran-3-carboxylic acid methylamide]
pEC50 [1, 2]: > 6.00
pIC50 (HCV NS5B; [3]): ≥ 6.30

CNC(=O)c1c(-c2occc2C)oc2ccc(OC(C)C)cc12 [Example 121, 5-Isopropoxy-2-(3-methyl-furan-2-yl)-benzofuran-3-carboxylic acid methylamide]
pEC50 [1, 4]: > 4.52
pIC50 (HCV NS5B; HCV NS5B RdRp, BB7 genotype 1b): 5.30 to 6.30

CNC(=O)c1c(-c2ccccc2)oc2c(C)cc(OC)cc12 [Example 63, 5-Methoxy-7-methyl-2-phenyl-benzofuran-3-carboxylic acid methylamide]
pEC50 [1, 5]: > 5.00
pIC50 (HCV NS5B; [6]): 5.30 to 6.30

CNC(=O)c1c(-c2ccc(F)cc2)oc2cc(N3CCOCC3)c(OCc3csc(C)n3)cc12 [Example 201, 2-(4-Fluoro-phenyl)-5-(2-methyl-thiazol-4-ylmethoxy)-6-morpholin-4-yl-benzofuran-3-carboxylic acid methylamide]
pEC50 [1, 2]: > 6.00
pIC50 (HCV NS5B; [3]): ≥ 6.30

CNC(=O)c1c(-c2ccc(F)cc2)oc2cc(N(C)S(C)(=O)=O)c(OCc3nn(C)cc3Cl)cc12 [Example 403, 5-(4-Chloro-1-methyl-1H-pyrazol-3-ylmethoxy)-2-(4-fluoro-phenyl)-6-(methanesulfonyl-methyl-amino)-benzofuran-3-carboxylic acid methylamide]
pEC50 [1, 9]: > 6.00
pIC50 (HCV NS5B; [10]): ≥ 6.30

CNC(=O)c1c(-c2ccc(Cl)s2)oc2ccc(OC)cc12 [Example 85, 2-(5-Chloro-thiophen-2-yl)-5-methoxy-benzofuran-3-carboxylic acid methylamide]
pEC50 [1, 5]: > 5.00
pIC50 (HCV NS5B; [6]): ≥ 6.30

CNC(=O)c1c(-c2ccc(F)cc2)oc2cc(C(=O)O)c(OC(C)C)cc12 [Example 187, 2-(4-Fluoro-phenyl)-5-isopropoxy-3-methylcarbamoyl-benzofuran-6-carboxylic acid]
pEC50 [1, 2]: > 5.00
pIC50 (HCV NS5B; [3]): 4.52 to 5.30
